Key:
Type in all cases: in vivo
Conditions in all cases: PREEMERGENCE
[1] = system: eastern black nightshade (Solanum ptycanthum); experiment: Test C; set-up: key: 0 was no effect; 100 was complete control
[2] = system: ivyleaf morningglory (Ipomoea hederacea); experiment: Test C; set-up: key: 0 was no effect; 100 was complete control
[3] = system: wild poinsettia (Euphorbia heterophylla); experiment: Test C; set-up: key: 0 was no effect; 100 was complete control
[4] = system: ladysthumb smartweed (Polygonum persicaria); experiment: Test C; set-up: key: 0 was no effect; 100 was complete control
[5] = system: velvetleaf (Abutilon theophrasti); experiment: Test C; set-up: key: 0 was no effect; 100 was complete control
[6] = system: lambsquarters (Chenopodium album); experiment: Test C; set-up: key: 0 was no effect; 100 was complete control
[7] = system: large crabgrass (Digitaria sanguinalis); experiment: Test C; set-up: key: 0 was no effect; 100 was complete control
[8] = system: arrowleaf sida (Sida rhombifolia); experiment: Test C; set-up: key: 0 was no effect; 100 was complete control
[9] = system: bermudagrass (Cynodon dactylon); experiment: Test E pre-/postemergence/post directed
Excerpt: (§1) Seeds, tubers, or plant parts of alexandergrass (Brachiaria plantaginea), annual bluegrass (Poa annua), arrowleaf sida (Sida rhombifolia), barnyardgrass (Echinochloa crus-galli), bermudagrass (Cynodon dactylon), citrus (Citrus sinensis), common chickweed (Stellaria media), common purslane (Portulaca oleracea), common ragweed (Ambrosia elatior), common groundsel (Senecio vulgaris), dallisgrass (Paspalum dilatatum), goosegrass (Eleusine indica), green foxtail (Setaria viridis), guineagrass (Panicum maximum), itchgrass (Rottboellia exaltata), johnson grass (Sorghum halepense), kochia (Kochia scoparia), large crabgrass (Digitaria sanguinalis), leafy spurge (Euphorbia esula), pitted morningglory (Ipomoea lacunosa), purple nutsedge (Cyperus rotundus), quackgrass (Agropyron repens), Russian thistle (Salsola kali), sandbur (Cenchrus echinatus), sourgrass (Trichachne insularis), Spanishneedles (Bidens bipinnata), sugarcane (Saccharum officinarum), surinam grass (Brachiaria decumbens) and tall mallow (Malva sylvestris) were planted into greenhouse pots of flats containing greenhouse planting medium. Plant species were grown grown in separate pots or individual compartments. Preemergence applications were made within one day of planting the seed or plant part. Postemergence applications were applied when the plants were in the two to four leaf stage (three to twenty cm).
(§2) Test chemicals were formulated in a non-phytotoxic solvent mixture which included a surfactant and applied preemergence to the soil surface, postemergence to the plants or as a post directed spray to plants and soil at the base of the target species. Untreated control plants and treated plants were placed in the greenhouse and visually evaluated for injury 13 to 21 days after herbicide application. Plant response ratings, summarized in Table E, are based on a 0 to 100 scale where 0 is no injury and 100 is complete control. A dash (−) response means no test result.

[10] = system: itchgrass (Rottboellia exaltata); experiment: Test E pre-/postemergence/post directed
Excerpt: as §1, §2

[11] = system: surinam grass (Brachiaria decumbens); experiment: Test E pre-/postemergence/post directed
Excerpt: as §1, §2

[12] = system: alexandergrass (Brachiaria plantaginea); experiment: Test E pre-/postemergence/post directed
Excerpt: as §1, §2

[13] = system: common groundsel (Senecio vulgaris); experiment: Test E pre-/postemergence/post directed
Excerpt: as §1, §2

[14] = system: johnson grass (Sorghum halepense); experiment: Test E pre-/postemergence/post directed
Excerpt: as §1, §2

[15] = system: pitted morningglory (Ipomoea lacunosa); experiment: Test E pre-/postemergence/post directed
Excerpt: as §1, §2

[16] = system: sandbur (Cenchrus echinatus); experiment: Test E pre-/postemergence/post directed
Excerpt: as §1, §2

[17] = system: large crabgrass (Digitaria sanguinalis); experiment: Test E pre-/postemergence/post directed
Excerpt: as §1, §2

[18] = system: Spanishneedles (Bidens bipinnata); experiment: Test E pre-/postemergence/post directed
Excerpt: as §1, §2

[19] = system: common ragweed (Ambrosia elatior); experiment: Test E pre-/postemergence/post directed
Excerpt: as §1, §2

[20] = system: purple nutsedge (Cyperus rotundus); experiment: Test E pre-/postemergence/post directed; set-up: key: 0 is no injury; 100 is complete control
Excerpt: as §1, §2

Cc1cnc(-c2ccc(C(F)(F)F)cc2)nc1C(Cl)c1cccc(C(F)(F)F)c1 (racemic) [Compound 21]
Plant response rating, E. blacknightsh ([1]; Rate 35 g/ha): 40
Plant response rating, E. blacknightsh ([1]; Rate 70 g/ha): 80
Plant response rating, E. blacknightsh ([1]; Rate 140 g/ha): 85
Plant response rating, I. morningglory ([2]; Rate 35 g/ha): 0
Plant response rating, I. morningglory ([2]; Rate 70 g/ha): 0
Plant response rating, I. morningglory ([2]; Rate 140 g/ha): 0
Plant response rating, Wild poinsettia ([3]; Rate 35 g/ha): 0
Plant response rating, Wild poinsettia ([3]; Rate 70 g/ha): 5
Plant response rating, Wild poinsettia ([3]; Rate 140 g/ha): 5
Plant response rating, Ladysthumb ([4]; Rate 35 g/ha): 0
Plant response rating, Ladysthumb ([4]; Rate 140 g/ha): 5
Plant response rating, Velvetleaf ([5]; Rate 35 g/ha): 0
Plant response rating, Velvetleaf ([5]; Rate 70 g/ha): 50
Plant response rating, Velvetleaf ([5]; Rate 140 g/ha): 50
Plant response rating, Lambsquarters ([6]; Rate 35 g/ha): 0
Plant response rating, Lambsquarters ([6]; Rate 70 g/ha): 5
Plant response rating, Lambsquarters ([6]; Rate 140 g/ha): 90
Plant response rating, Large crabgrass ([7]; Rate 35 g/ha): 80
Plant response rating, Large crabgrass ([7]; Rate 70 g/ha): 100
Plant response rating, Large crabgrass ([7]; Rate 140 g/ha): 100
Plant response rating, Arrowleaf sida ([8]; Rate 35 g/ha): 70
Plant response rating, Arrowleaf sida ([8]; Rate 70 g/ha): 85
Plant response rating, Arrowleaf sida ([8]; Rate 140 g/ha): 90

Cc1cnc(-n2cnc(C(F)(F)F)n2)nc1Cc1cccc(C(F)(F)F)c1 [Compound 43]
Plant response rating, E. blacknightsh ([1]; Rate 35 g/ha): 100
Plant response rating, E. blacknightsh ([1]; Rate 70 g/ha): 100
Plant response rating, E. blacknightsh ([1]; Rate 140 g/ha): 100
Plant response rating, I. morningglory ([2]; Rate 35 g/ha): 20
Plant response rating, I. morningglory ([2]; Rate 70 g/ha): 100
Plant response rating, I. morningglory ([2]; Rate 140 g/ha): 100
Plant response rating, Wild poinsettia ([3]; Rate 35 g/ha): 10
Plant response rating, Wild poinsettia ([3]; Rate 70 g/ha): 50
Plant response rating, Wild poinsettia ([3]; Rate 140 g/ha): 60
Plant response rating, Velvetleaf ([5]; Rate 35 g/ha): 100
Plant response rating, Velvetleaf ([5]; Rate 70 g/ha): 100
Plant response rating, Velvetleaf ([5]; Rate 140 g/ha): 100
Plant response rating, Lambsquarters ([6]; Rate 35 g/ha): 100
Plant response rating, Lambsquarters ([6]; Rate 70 g/ha): 100
Plant response rating, Lambsquarters ([6]; Rate 140 g/ha): 100
Plant response rating, Large crabgrass ([7]; Rate 35 g/ha): 100
Plant response rating, Large crabgrass ([7]; Rate 70 g/ha): 100
Plant response rating, Large crabgrass ([7]; Rate 140 g/ha): 100
Plant response rating, Arrowleaf sida ([8]; Rate 35 g/ha): 100
Plant response rating, Arrowleaf sida ([8]; Rate 70 g/ha): 100
Plant response rating, Arrowleaf sida ([8]; Rate 140 g/ha): 100

Cc1cnc(-n2ccc(C(F)(F)F)n2)nc1C(=O)c1cccc(OC(F)(F)F)c1 [Compound 66]
Plant response rating, E. blacknightsh ([1]; Rate 35 g/ha): 0
Plant response rating, E. blacknightsh ([1]; Rate 70 g/ha): 10
Plant response rating, E. blacknightsh ([1]; Rate 140 g/ha): 30
Plant response rating, I. morningglory ([2]; Rate 35 g/ha): 5
Plant response rating, I. morningglory ([2]; Rate 70 g/ha): 10
Plant response rating, I. morningglory ([2]; Rate 140 g/ha): 10
Plant response rating, Wild poinsettia ([3]; Rate 35 g/ha): 0
Plant response rating, Wild poinsettia ([3]; Rate 70 g/ha): 0
Plant response rating, Wild poinsettia ([3]; Rate 140 g/ha): 0
Plant response rating, Ladysthumb ([4]; Rate 35 g/ha): 0
Plant response rating, Ladysthumb ([4]; Rate 140 g/ha): 70
Plant response rating, Velvetleaf ([5]; Rate 35 g/ha): 0
Plant response rating, Velvetleaf ([5]; Rate 70 g/ha): 0
Plant response rating, Velvetleaf ([5]; Rate 140 g/ha): 0
Plant response rating, Lambsquarters ([6]; Rate 35 g/ha): 0
Plant response rating, Lambsquarters ([6]; Rate 70 g/ha): 0
Plant response rating, Lambsquarters ([6]; Rate 140 g/ha): 100
Plant response rating, Large crabgrass ([7]; Rate 35 g/ha): 80
Plant response rating, Large crabgrass ([7]; Rate 70 g/ha): 100
Plant response rating, Large crabgrass ([7]; Rate 140 g/ha): 100
Plant response rating, Arrowleaf sida ([8]; Rate 35 g/ha): 5
Plant response rating, Arrowleaf sida ([8]; Rate 70 g/ha): 5
Plant response rating, Arrowleaf sida ([8]; Rate 140 g/ha): 100

Cc1cnc(-n2cnc(C(F)(F)F)n2)nc1C(=O)c1cccc(C(F)(F)F)c1 [Compound 67]
Plant response rating, Bermudagrass ([9]; Rate 32 g/ha): 70
Plant response rating, Bermudagrass ([9]; Rate 64 g/ha): 90
Plant response rating, Bermudagrass ([9]; Rate 125 g/ha): 90
Plant response rating, Itchgrass ([10]; Rate 32 g/ha): 40
Plant response rating, Itchgrass ([10]; Rate 64 g/ha): 40
Plant response rating, Itchgrass ([10]; Rate 125 g/ha): 65
Plant response rating, Itchgrass ([10]; Rate 250 g/ha): 80
Plant response rating, Surinam grass ([11]; Rate 32 g/ha): 35
Plant response rating, Surinam grass ([11]; Rate 64 g/ha): 75
Plant response rating, Surinam grass ([11]; Rate 125 g/ha): 75
Plant response rating, Alexandergrass ([12]; Rate 32 g/ha): 25
Plant response rating, Alexandergrass ([12]; Rate 64 g/ha): 40
Plant response rating, Alexandergrass ([12]; Rate 125 g/ha): 70
Plant response rating, Alexandergrass ([12]; Rate 250 g/ha): 95
Plant response rating, Com. groundsel ([13]; Rate 64 g/ha): 50
Plant response rating, Com. groundsel ([13]; Rate 125 g/ha): 95
Plant response rating, Johnsongrass ([14]; Rate 32 g/ha): 35
Plant response rating, Johnsongrass ([14]; Rate 64 g/ha): 35
Plant response rating, Johnsongrass ([14]; Rate 125 g/ha): 50
Plant response rating, Johnsongrass ([14]; Rate 250 g/ha): 80
Plant response rating, P. morninglory ([15]; Rate 32 g/ha): 60
Plant response rating, P. morninglory ([15]; Rate 64 g/ha): 75
Plant response rating, P. morninglory ([15]; Rate 125 g/ha): 90
Plant response rating, P. morninglory ([15]; Rate 250 g/ha): 90
Plant response rating, Sandbur ([16]; Rate 32 g/ha): 60
Plant response rating, Sandbur ([16]; Rate 64 g/ha): 60
Plant response rating, Sandbur ([16]; Rate 125 g/ha): 65
Plant response rating, Sandbur ([16]; Rate 250 g/ha): 75
Plant response rating, Large crabgrass ([17]; Rate 32 g/ha): 90
Plant response rating, Large crabgrass ([17]; Rate 64 g/ha): 95
Plant response rating, Large crabgrass ([17]; Rate 125 g/ha): 98
Plant response rating, Spanishneedles ([18]; Rate 125 g/ha): 50
Plant response rating, Spanishneedles ([18]; Rate 250 g/ha): 50
Plant response rating, Com. ragweed ([19]; Rate 32 g/ha): 90
Plant response rating, Com. ragweed ([19]; Rate 64 g/ha): 95
Plant response rating, Purple nutsedge ([20]; Rate 32 g/ha): 0
Plant response rating, Purple nutsedge ([20]; Rate 64 g/ha): 5
Plant response rating, Purple nutsedge ([20]; Rate 125 g/ha): 5
Plant response rating, Purple nutsedge ([20]; Rate 250 g/ha): 10

— patent US6525001B1, “Substituted pyrimidine and pyridine herbicides” (Mid-American Commercialization Corporation, priority 1997, dated 2003)
